Assay results as given in the supplement of paper PMC10307832.

Compound: c1ccc2c(CCNc3ccc(Nc4ccncc4)cc3)c[nH]c2c1 [Serdemetan] + C[C@]1(O)C[C@@H](c2nc(-c3ccc4ccc(-c5ccccc5)nc4c3)c3c(N)nccn32)C1 [Linsitinib] (partner 1 µM)
Assay: relative viability (nuclei count vs DMSO), 5 days (fraction); higher = more cells survive
Conditions: first compound 0.04 µM
Summary of the method: (§1)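 Dosing by pin tool came one day after lung cancer cell lines were seeded in 1536-well plates, using either one drug or a fixed anchor-drug dose plus five library-drug doses (not always all listed) in √10 steps. After 5 days, nuclei were counted on 4× images. Relative viability is treated-well nuclei count divided by vehicle-well nuclei count, and values are medians of duplicate plates.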

Compared with A-427, NCI-H441 is lower in relative viability: 1.06 for the first, 0.454 for the second.

First: NCI-H661
Second: NCI-H1734
The relative viability of the first is lower: 0.521 for the first, 0.702 for the second.

Compared with NCI-H460, NCI-H2347 is higher in relative viability: 0.747 for the first, 0.753 for the second.

Compared with SK-LU-1, NCI-H1395 is lower in relative viability: 1.13 for the first, 0.993 for the second.

Compared with 201T, NCI-H1915 is lower in relative viability: 1.04 for the first, 1.03 for the second.

First: HCC-827
Second: LXF-289
The relative viability of the first is lower: 0.892 for the first, 0.953 for the second.

Compared with NCI-H23, NCI-H647 is higher in relative viability: 0.571 for the first, 1.06 for the second.

Going from CAL-12T to NCI-H1651, the relative viability rises from 0.77 to 0.822.

First: EPLC-272H
Second: NCI-H2228
The relative viability of the first is higher: 1.29 for the first, 0.806 for the second.

Compared with NCI-H1792, NCI-H1355 is higher in relative viability: 0.565 for the first, 0.82 for the second.

First: NCI-H3122
Second: NCI-H1437
The relative viability of the first is higher: 1.09 for the first, 0.993 for the second.

Compared with NCI-H1755, NCI-H2023 is lower in relative viability: 0.956 for the first, 0.708 for the second.

Going from HCC-15 to NCI-H1793, the relative viability rises from 0.861 to 0.978.

First: PC-14
Second: EKVX
The relative viability of the first is lower: 0.901 for the first, 0.997 for the second.

Compared with LC-2-ad, NCI-H1944 is higher in relative viability: 0.908 for the first, 1.23 for the second.

Same assay, conditions: first compound 0.1265 µM

First: HARA
Second: NCI-H322M
The relative viability of the first is lower: 0.865 for the first, 0.955 for the second.

First: LCLC-97TM1
Second: NCI-H2009
The relative viability of the first is lower: 0.172 for the first, 1.2 for the second.

Going from A-427 to NCI-H441, the relative viability falls from 1.04 to 0.608.

First: NCI-H661
Second: NCI-H460
The relative viability of the first is lower: 0.635 for the first, 0.71 for the second.

Compared with NCI-H2347, SK-LU-1 is higher in relative viability: 0.965 for the first, 1.14 for the second.

Going from NCI-H1395 to 201T, the relative viability falls from 1.17 to 1.03.

Compared with NCI-H1915, HCC-827 is lower in relative viability: 1.08 for the first, 0.9 for the second.

Compared with LXF-289, NCI-H23 is lower in relative viability: 0.95 for the first, 0.684 for the second.

Going from NCI-H647 to CAL-12T, the relative viability falls from 1.11 to 0.793.

First: NCI-H1651
Second: EPLC-272H
The relative viability of the first is lower: 0.724 for the first, 1.18 for the second.

Going from NCI-H2228 to NCI-H1792, the relative viability falls from 0.68 to 0.527.

Compared with NCI-H1355, NCI-H3122 is higher in relative viability: 0.711 for the first, 0.946 for the second.

First: NCI-H1437
Second: NCI-H1755
The relative viability of the first is higher: 1.02 for the first, 0.941 for the second.

First: NCI-H2023
Second: HCC-15
The relative viability of the first is lower: 0.766 for the first, 0.893 for the second.

First: NCI-H1793
Second: PC-14
The relative viability of the first is lower: 0.834 for the first, 0.952 for the second.

First: EKVX
Second: LC-2-ad
The relative viability of the first is higher: 0.971 for the first, 0.805 for the second.

NCI-H1944 showed a relative viability of 1.17.

Same assay, conditions: first compound 0.4 µM

Compared with HARA, NCI-H322M is lower in relative viability: 0.854 for the first, 0.827 for the second.

Compared with LCLC-97TM1, NCI-H2009 is higher in relative viability: 0.186 for the first, 1.13 for the second.

Going from A-427 to NCI-H441, the relative viability falls from 1.07 to 0.532.

Going from NCI-H661 to NCI-H1734, the relative viability falls from 0.606 to 0.299.

Going from NCI-H460 to NCI-H2347, the relative viability rises from 0.537 to 0.959.

First: SK-LU-1
Second: NCI-H1395
The relative viability of the first is lower: 1.07 for the first, 1.09 for the second.

Compared with 201T, NCI-H1915 is higher in relative viability: 1.01 for the first, 1.08 for the second.

Going from LXF-289 to NCI-H23, the relative viability falls from 0.863 to 0.747.

Compared with NCI-H647, CAL-12T is lower in relative viability: 1.11 for the first, 0.698 for the second.

Going from NCI-H1651 to EPLC-272H, the relative viability rises from 0.509 to 1.07.

Compared with NCI-H2228, NCI-H1792 is higher in relative viability: 0.519 for the first, 0.557 for the second.

First: NCI-H1355
Second: NCI-H3122
The relative viability of the first is lower: 0.746 for the first, 1.05 for the second.

First: NCI-H1437
Second: NCI-H1755
The relative viability of the first is higher: 0.975 for the first, 0.881 for the second.

Compared with NCI-H2023, HCC-15 is higher in relative viability: 0.613 for the first, 0.797 for the second.

Going from NCI-H1793 to PC-14, the relative viability rises from 0.574 to 0.909.

Compared with EKVX, LC-2-ad is lower in relative viability: 0.861 for the first, 0.857 for the second.

NCI-H1944 was tested, and the relative viability was 1.06.

Same assay, conditions: first compound 1.265 µM

Compared with NCI-H322M, LCLC-97TM1 is lower in relative viability: 0.863 for the first, 0.12 for the second.

Going from NCI-H2009 to A-427, the relative viability falls from 1 to 0.883.

Compared with NCI-H441, NCI-H661 is higher in relative viability: 0.289 for the first, 0.563 for the second.

Going from NCI-H1734 to NCI-H460, the relative viability falls from 0.182 to 0.153.

Compared with NCI-H2347, SK-LU-1 is higher in relative viability: 0.666 for the first, 1.03 for the second.

Going from NCI-H1395 to 201T, the relative viability rises from 0.874 to 1.02.

Compared with NCI-H1915, HCC-827 is lower in relative viability: 0.975 for the first, 0.689 for the second.

First: LXF-289
Second: NCI-H23
The relative viability of the first is higher: 0.785 for the first, 0.504 for the second.

First: NCI-H647
Second: CAL-12T
The relative viability of the first is higher: 0.944 for the first, 0.864 for the second.

First: NCI-H1651
Second: EPLC-272H
The relative viability of the first is lower: 0.355 for the first, 1 for the second.

Going from NCI-H2228 to NCI-H1792, the relative viability falls from 0.59 to 0.378.

Going from NCI-H1355 to NCI-H1437, the relative viability rises from 0.75 to 0.861.

First: NCI-H1755
Second: NCI-H2023
The relative viability of the first is lower: 0.556 for the first, 0.601 for the second.

Compared with HCC-15, NCI-H1793 is lower in relative viability: 0.647 for the first, 0.525 for the second.

First: PC-14
Second: EKVX
The relative viability of the first is lower: 0.78 for the first, 0.968 for the second.

Same assay, conditions: first compound 4 µM

Going from HARA to NCI-H322M, the relative viability rises from 0.441 to 0.836.

First: LCLC-97TM1
Second: NCI-H2009
The relative viability of the first is lower: 0.181 for the first, 0.979 for the second.

Compared with A-427, NCI-H441 is lower in relative viability: 0.576 for the first, 0.325 for the second.

First: NCI-H661
Second: NCI-H1734
The relative viability of the first is higher: 0.418 for the first, 0.194 for the second.

First: NCI-H460
Second: NCI-H2347
The relative viability of the first is lower: 0.104 for the first, 0.679 for the second.

Going from SK-LU-1 to NCI-H1395, the relative viability falls from 0.732 to 0.638.

Going from 201T to NCI-H1915, the relative viability rises from 0.781 to 0.908.

Going from HCC-827 to LXF-289, the relative viability rises from 0.762 to 0.765.

Compared with NCI-H23, NCI-H647 is higher in relative viability: 0.561 for the first, 0.982 for the second.

First: CAL-12T
Second: NCI-H1651
The relative viability of the first is higher: 0.651 for the first, 0.268 for the second.

Compared with EPLC-272H, NCI-H2228 is lower in relative viability: 0.703 for the first, 0.397 for the second.

First: NCI-H1792
Second: NCI-H1355
The relative viability of the first is lower: 0.231 for the first, 0.683 for the second.

Going from NCI-H3122 to NCI-H1437, the relative viability falls from 1.07 to 0.687.

Compared with NCI-H1755, NCI-H2023 is lower in relative viability: 0.653 for the first, 0.253 for the second.

Compared with HCC-15, NCI-H1793 is lower in relative viability: 0.62 for the first, 0.336 for the second.

First: PC-14
Second: EKVX
The relative viability of the first is higher: 0.805 for the first, 0.639 for the second.

Going from LC-2-ad to NCI-H1944, the relative viability falls from 0.722 to 0.6.

Compound: c1ccc2c(CCNc3ccc(Nc4ccncc4)cc3)c[nH]c2c1 [Serdemetan] + CC(=O)Nc1cccc(-n2c(=O)n(C3CC3)c(=O)c3c(Nc4ccc(I)cc4F)n(C)c(=O)c(C)c32)c1 [Trametinib] (partner 0.02 µM)
Assay: as above
Conditions: first compound 0.04 µM
Summary of the method: as §1

Compared with HARA, NCI-H322M is lower in relative viability: 0.529 for the first, 0.502 for the second.

Cell Line LCLC-97TM1 has a relative viability of 0.204.
